Source: US20180360799A1, “Nitrofuran Derivatives That Induce Apoptosis in Breast Cancer Cells by Activating Protein Expression” (Oklahoma Medical Research Foundation, priority 2015, published 2018)

Legend:
[1] = system: CHOP promoter-luciferase (CHOP-Luc) reporter; assay: CHOP-Luc reporter assay in HEK293 cells (Bright-Glo); format: cell-based, human; conditions: 10 μM, 24 h
Procedure: To identify compounds that activate the expression of CHOP, a HEK293 cell line stably expressing a CHOP-Luc reporter construct that faithfully reflects endogenous CHOP gene expression^21 was used to screen approximately 50,000 structurally diverse small molecules.
HEK293T CHOP-Luc cells were seeded at 7×10^3 cells/well in 384-well plates and treated with 10 μM of the library compounds the next day. After 24 h treatment, the medium was aspirated and 20 μL/well of Bright-Glo luciferase assay reagent was added. Luminescence was measured with an EnVision multilabel plate reader (PerkinElmer, Waltham, Mass., US). Hit selection was based on standard scores. The mean and standard deviation (SD) of luminescence for each compound was determined, and the standard score for each compound was then calculated as (raw measurement of a compound−mean)/SD of the plate. Compounds that increased ATP levels >3 SD compared with control wells (standard score >3) were considered hits.

HCC-1143 cells = assay: Cell viability, CellTiter-Glo, HCC-1143; format: cell-based; conditions: Homo sapiens, HCC1143; 0.125 μM to 20 μM, CellTiter-Glo; read-out: IC50 cell viability HCC-1143
Procedure: (§1) Given the known functions of CHOP in ER stress-induced apoptosis^16, 17 and in regulating cancer cell death,^6, 19, 20 the inventor investigated whether compound 1 affects the viability of TNBC cells. Three human TNBC cell lines, HCC-1806, HCC-1143, and HCC-38, were treated with doses of 1 ranging from 0.125 μM to 20 μM and their viability was assessed using the CellTiter-Glo assay, which measures intracellular ATP levels.
(§2) HCC-1806, HCC-1143, or HCC-38 cells were seeded at 3×10^3 cells/well in a 384-well plate and treated with compounds at the indicated concentrations. After 3 d treatment, the medium was aspirated and 20 μL/well of CellTiter-Glo reagent was added. Cell viability was measured with an EnVision multilabel plate reader. The IC50 value for cell viability of each compound was calculated with GraphPad Prism (La Jolla, Calif., US).

HCC-1806 cells = assay: Cell viability, CellTiter-Glo, HCC-1806; format: cell-based; conditions: Homo sapiens, HCC1806; 0.125 μM to 20 μM, CellTiter-Glo; read-out: IC50 cell viability HCC-1806
Procedure: as §1, §2

endogenous CHOP gene = assay: Endogenous CHOP mRNA by qRT-PCR in HEK293 cells; format: cell-based, human; conditions: 10 μM, 24 h
Excerpt: The primer sequences used were: Human CHOP: SEQ ID NO: 1 F, 5′-[sequence]-3′ and SEQ ID NO: 2 R, 5′-[sequence]-3′. Human ATF4: SEQ ID NO: 3 F, 5′-[sequence]-3′ and SEQ ID NO: 4 R, 5′-[sequence]-3′. […] Human Cyclophilin A: SEQ ID NO: 7 F, 5′-[sequence]-3′ and SEQ ID NO: 8 R, 5′-[sequence]-3′. Human GAPDH: SEQ ID NO: 9 F, 5′-[sequence]-3′ and SEQ ID NO: 10 R, 5′-[sequence]-3′.

HCC-38 cells = assay: Cell viability, CellTiter-Glo, HCC-38; format: cell-based; conditions: Homo sapiens, HCC38; 0.125 μM to 20 μM, CellTiter-Glo; read-out: IC50 cell viability HCC-38
Procedure: as §1, §2

[2] = system: UPRE-Luciferase (UPRE-Luc) reporter; assay: UPRE-Luc reporter assay in HEK293 cells; format: cell-based, human; conditions: 3d 10 μM or Tm 1 μg/mL, 24 h
Procedure: (§3) FIG. 3G is a graph showing HEK293 cells stably expressing CHOP-Luc, ERSE-Luc, or UPRE-luc reporters were treated with DMSO, a 5-nitrofuran-2-amide derivative, or tunicamycin. HEK293 cells stably expressing CHOP-Luc, ERSE-Luc, or UPRE-luc reporters were treated with DMSO, compound 3d (10 μM), or Tm (1 μg/mL) for 24 h, and luciferase activity was measured using the Bright-Glo assay. Results are the means of 4 replicate wells and are representative of 3 independent experiments.
(§4) The inventor next asked whether the IRE1α and ATF6 branches of the unfolded protein response were also activated by compound 3d treatment of TNBC cells. […] XBP1 mRNA splicing, as measured by XBP1s levels, increased only slightly in the first 24 h after compound 3d treatment of HCC-1806 cells (from 11% of total XBP1 at 0 h to 15˜20% at 2˜24 h). […] Next, it was determined whether compound 3d activates the ATF6 pathway by evaluating its effect on the activity of an ER stress response elements (ERSE)-Luc reporter stably established in HEK293 cell line.
(§5) The HEK293T CHOP reporter cell line (CHOP-Luc) was previously described.^21 HEK293T cells were stably transfected with ERSE-Luciferase^25 and UPRE-Luciferase^23 reporters to generate ERSE-Luc and UPRE-Luc reporter cell lines, respectively. […] Luciferase activity was measured with a Bright-Glo kit 24 h later.

[3] = system: ER stress response elements (ERSE)-Luc reporter; assay: ERSE-Luc reporter assay in HEK293 cells; format: cell-based, human; conditions: Tm 1 μg/mL, 24 h
Procedure: as §3, §4, §5

[4] = system: XBP1 mRNA splicing (IRE1α pathway); assay: XBP1 mRNA splicing by RT-PCR in HCC-1806 cells; format: cell-based, human; conditions: HCC-1806, tunicamycin 1 μg/mL, at 8 h
Procedure: FIG. 3E is a graph showing XBP1 mRNA levels in HCC-1806 cells treated with tunicamycin or a 5-nitrofuran-2-amide derivative compound 3d. HCC-1806 cells were treated with compound 3d (10 μM) or tunicamycin (Tm, 1 μg/mL) for the indicated times. XBP1 mRNA levels were analyzed by RT-PCR and the products were resolved by agarose gel electrophoresis. The full-length (unspliced, XBP1u) and spliced (XBP1s) forms of XBP1 mRNA are indicated. GAPDH mRNA was used as an internal control.
The percentage of XBP1s relative to total XBP1 was calculated as: (XBP1s/[XBP1s+XBP1u])×100%. The data shown are representative of 3 independent studies.
as §4, with “line. […]” for “line.”

| Compound | increase of CHOP-Luc reporter activity [1] [fold] | IC50 (HCC-1143 cells) [µM] | IC50 (HCC-1806 cells) [µM] | increase of mRNA level of the endogenous CHOP gene (endogenous CHOP gene) | IC50 (HCC-38 cells) [µM] | increase of UPRE-Luc luciferase activity [2] [fold] | increase of ERSE-driven luciferase activity [3] [fold] | XBP1s, percentage of total XBP1 [4] [%] |
| --- | --- | --- | --- | --- | --- | --- | --- | --- |
| O=C(Nc1ccc(I)cc1)c1ccc([N+](=O)[O-])o1 [Compound 1, N-(4-iodophenyl)-5-nitrofuran-2-carboxamide] | 24 | 9.5 | 6.2 | up to 30 fold | 8.7 | – | – | – |
| tunicamycin [reference compound] | – | – | – | – | – | > 25 | ~12 | ~87 |
